Test results from patent US9115133B2, “Substituted fused tricyclic compounds, compositions and medicinal applications thereof” (Advinus Therapeutics Limited, priority 2011, dated 2015).

Columns and labels:
Assay type in all cases: biochemical
Settings in all cases: 200 μg/ml Poly Glu-Tyr (4:1), ATP 1 uM, 90 min room temperature, luminescence
[1] = target: T1, Recombinant JAK2 (Amino acids 808-1132) (Homo sapiens, UniProt O60674); assay: Kinase-Glo Luminescent Kinase Assay, recombinant JAK2
T1 construct: JAK2 (Amino acids 808-1132; NM_004972.3); made in house; host or cells: baculovirus expression system (Bac-to-Bac)
Excerpt: (§1) Recombinant JAK1 (Amino acids 850-1154; NM_002227.2), JAK2 (Amino acids 808-1132; NM_004972.3) and JAK3 (Amino acids 781-1124; NM_000215.3) used in the studies were expressed using Invitrogen's Bac-to-Bac baculovirus expression system according to manufacturer's instructions. Adenosine 5′-triphosphate was obtained from Sigma Aldrich chemicals (Cat # A7699). Poly Glu-Tyr (4:1) sodium salt was obtained from Sigma Aldrich (Cat # P0275), Kinase Glo® Luminescent Kinase assay kit was obtained from Promega (Cat # V6713) Kinase activity was assessed by Promega Kinase-Glo® Luminescent Kinase Assay kit using 200 μg/ml Poly Glu-Tyr (4:1) as substrate and ATP at 1 uM concentration. The reactions were carried out in 384 well plates in total reaction volume of 20 uL. Reaction mixtures contained 50 mM HEPES pH 7.4, 5 mM MgCl2, 1 mM DTT, 0.01% BSA, 0.01% Tween 20. Kinase was pre-incubated with compounds or 1% DMSO for 5 min before addition of substrate and ATP to check for inhibition. Kinase reactions were carried out at room temperature for 90 min. The reactions were stopped by adding 5 μl of Kinase Glo® reagent & 10 μl of reaction mixture followed by measuring luminescence. The luminescent signal is correlated with the amount of ATP present at the end of kinase reaction and is inversely correlated with the amount of kinase activity. For each data point, % inhibition is calculated based on uninhibited reaction (without compound) which is considered as 100% activity over no enzyme or substrate controls. Dose response data is then fit using a four parameter logistic equation using Graph-pad Prism 5 software to determine inhibition constant 50 (IC50).

[2] = target: T2, Recombinant JAK3 (Amino acids 781-1124) (Homo sapiens, UniProt P52333); assay: Kinase-Glo Luminescent Kinase Assay, recombinant JAK3
T2 construct: JAK3 (Amino acids 781-1124; NM_000215.3); made in house; host or cells: baculovirus expression system (Bac-to-Bac)
Excerpt: as §1

[3] = target: T3, Recombinant JAK1 (Amino acids 850-1154) (Homo sapiens, UniProt P23458); assay: Kinase-Glo Luminescent Kinase Assay, recombinant JAK1
T3 construct: Recombinant JAK1 (Amino acids 850-1154; NM_002227.2); made in house; host or cells: baculovirus expression system (Bac-to-Bac)
Excerpt: as §1

T3 sequence (P23458 850-1154): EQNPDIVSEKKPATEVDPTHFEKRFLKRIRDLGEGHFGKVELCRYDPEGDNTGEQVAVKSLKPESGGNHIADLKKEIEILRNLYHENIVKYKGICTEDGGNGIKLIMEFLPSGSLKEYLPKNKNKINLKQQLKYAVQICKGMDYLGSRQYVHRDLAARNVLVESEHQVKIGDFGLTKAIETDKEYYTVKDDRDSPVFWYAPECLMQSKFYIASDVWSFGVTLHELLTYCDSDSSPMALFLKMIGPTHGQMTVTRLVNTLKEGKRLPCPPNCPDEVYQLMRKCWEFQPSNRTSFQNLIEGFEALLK
T2 sequence (P52333 781-1124): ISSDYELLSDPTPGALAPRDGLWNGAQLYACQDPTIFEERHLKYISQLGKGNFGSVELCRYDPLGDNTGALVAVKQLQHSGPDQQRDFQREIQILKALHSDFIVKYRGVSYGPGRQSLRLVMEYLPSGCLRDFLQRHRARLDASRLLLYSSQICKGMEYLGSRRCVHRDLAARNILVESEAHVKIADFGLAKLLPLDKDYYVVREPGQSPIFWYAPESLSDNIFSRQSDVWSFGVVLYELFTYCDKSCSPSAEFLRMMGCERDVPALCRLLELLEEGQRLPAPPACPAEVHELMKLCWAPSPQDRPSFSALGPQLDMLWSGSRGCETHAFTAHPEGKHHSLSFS
T1 sequence (O60674 808-1132): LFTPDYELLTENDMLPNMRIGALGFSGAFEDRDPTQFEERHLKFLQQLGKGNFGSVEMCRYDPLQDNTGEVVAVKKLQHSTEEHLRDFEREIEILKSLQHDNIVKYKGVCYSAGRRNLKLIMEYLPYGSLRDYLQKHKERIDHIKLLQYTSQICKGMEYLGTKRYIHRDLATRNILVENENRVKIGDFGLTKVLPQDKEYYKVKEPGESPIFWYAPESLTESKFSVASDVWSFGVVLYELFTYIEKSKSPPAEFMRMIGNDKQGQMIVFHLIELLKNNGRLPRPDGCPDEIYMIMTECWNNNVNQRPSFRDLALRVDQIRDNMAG

SMILES	IC50 [1]	IC50 [2]	IC50 [3]
c1cc(N2CCCCC2)c2c(cnc3[nH]ccc32)n1 [Ex. 58, 9-(1-piperidyl)-3H-pyrrolo[3,2-f][1,7]naphthyridine]	1 to 20 nM	1 to 20 nM	
N#CCC(=O)N1CCC[C@H](c2ncnc3cnc4[nH]ccc4c23)C1 [Ex. 23B, (S)3-Oxo-3-[3-(3H-3,4,6,8-tetraazacyclopenta[a]naphthalen-9-yl)-piperidin-1-yl]-propionitrile]	1 to 20 nM	1 to 20 nM	
O=C(CC(F)(F)F)N1CC[C@@H](c2ccnc3cnc4[nH]ccc4c23)C1 [Ex. 15B, (S)3,3,3-trifluoro-1-[3-(3H-pyrrolo[3,2-f][1,7]naphthyridin-9-yl)pyrrolidin-1-yl]propan-1-one]	1 to 20 nM	> 20 nM	
O=C(NC1CC1)[C@H]1CCCN(c2ccnc3cnc4[nH]ccc4c23)C1 [Ex. 61A, (3S)-N-cyclopropyl-1-(3H-pyrrolo[3,2-f][1,7]naphthyridin-9-yl)piperidine-3-carboxamide]	> 20 nM	> 20 nM	
N#CCS(=O)(=O)N1CC[C@@H](c2ccnc3cnc4[nH]ccc4c23)C1 [Ex. 16B, (S)2-[3-(3H-pyrrolo[3,2-f][1,7]naphthyridin-9-yl)pyrrolidin-1-yl]sulfonylacetonitrile]	> 20 nM	> 20 nM	
O=C(CC(F)(F)F)N1CCC[C@H](c2ncnc3cnc4[nH]ccc4c23)C1 [Ex. 24B, (S)3,3,3-Trifluoro-1-[3-(3H-3,4,6,8-tetraazacyclopenta[a]naphthalen-9-yl)-piperidin-1-yl]-propan-1-one]	1 to 20 nM	1 to 20 nM	
CC(C)OC(=O)N1CCCC(c2ccnc3cnc4[nH]ccc4c23)C1 (centres unmarked) [Ex. 52, Isopropyl 3-(3H-pyrrolo[3,2-f][1,7]naphthyridin-9-yl)piperidine-1-carboxylate]	1 to 20 nM	1 to 20 nM	
COCCOC1CCCN(c2ccnc3cnc4[nH]ccc4c23)C1 (centres unmarked) [Ex. 57, 9-[3-(2-methoxyethoxy)-1-piperidyl]-3H-pyrrolo[3,2-f][1,7]naphthyridine]	> 20 nM	> 20 nM	
O=C(OCC(F)(F)F)N1CCCC(c2ccnc3cnc4[nH]ccc4c23)C1 (centres unmarked) [Ex. 51, 2,2,2-trifluoroethyl 3-(3H-pyrrolo[3,2-f][1,7]naphthyridin-9-yl)piperidine-1-carboxylate]	1 to 20 nM	1 to 20 nM	
CC(C)(C)OC(=O)N1CCCC(c2ccnc3cnc4[nH]ccc4c23)C1 (centres unmarked) [Comp. 41, tert-butyl 3-(3H-pyrrolo[3,2-f][1,7]naphthyridin-9-yl)piperidine-1-carboxylate]		1 to 20 nM	1 to 20 nM
O=S(=O)(C1CC1)N1CCCC(c2ccnc3cnc4[nH]ccc4c23)C1 (centres unmarked) [Ex. 6, 9-(1-cyclopropylsulfonyl-3-piperidyl)-3H-pyrrolo[3,2-f][1,7]naphthyridine]		1 to 20 nM	1 to 20 nM
CN(CC(F)(F)F)C(=O)C1CCN(c2ccnc3cnc4[nH]ccc4c23)CC1 [Ex. 82, N-methyl-1-(3H-yrrolo[3,2-f][1,7]naphthyridin-9-yl)-N-(2,2,2-trifluoroethyl) piperidine-4-carboxamide]		1 to 20 nM	> 20 nM
O=C(CC(F)(F)F)N1CCC(c2ccnc3cnc4[nH]ccc4c23)CC1 [Comp. 88, 3,3,3-trifluoro-1-[4-(3H-pyrrolo[3,2-f][1,7]naphthyridin-9-yl)-1-piperidyl]propan-1-one]		> 20 nM	> 20 nM
O=C(NCC(F)(F)F)C1CCN(c2ccnc3cnc4[nH]ccc4c23)CC1 [Ex. 78, 1-(3H-pyrrolo[3,2-f][1,7]naphthyridin-9-yl)-N-(2,2,2-trifluoroethyl)piperidine-4-carboxamide]		> 20 nM	> 20 nM
CC1CCC(C(=O)NC2CC2)CN1c1ccnc2cnc3[nH]ccc3c12 (single isomer, unassigned) [Ex. 88A, cis-N-cyclopropyl-6-methyl-1-(3H-pyrrolo[3,2-f][1,7]naphthyridin-9-yl)piperidine-3-carboxamide]		1 to 20 nM	> 20 nM
CC(C)NC(=O)C1CCN(c2ccnc3cnc4[nH]ccc4c23)CC1 [Ex. 75, N-isopropyl-1-(3H-pyrrolo[3,2-f][1,7]naphthyridin-9-yl)piperidine-4-carboxamide]		> 20 nM	> 20 nM
CC(C)CC(=O)N1CCCC(c2ccnc3cnc4[nH]ccc4c23)C1 (centres unmarked) [Ex. 5, 3-methyl-1-[3-(3H-pyrrolo[3,2-f][1,7]naphthyridin-9-yl)-1-piperidyl]butan-1-one]		> 20 nM	1 to 20 nM
O=S(=O)(CC(F)(F)F)N1CCN(c2ccnc3cnc4[nH]ccc4c23)CC1 [Ex. 104, 9-[4-(2,2,2-trifluoroethylsulfonyl)piper-azin-1-yl]-3H-pyrrolo[3,2-f][1,7]naphthyridine]		> 20 nM	> 20 nM
CN(CC(F)(F)F)C(=O)C1CCCN(c2ccnc3cnc4[nH]ccc4c23)C1 (centres unmarked) [Ex. 80, N-methyl-1-(3H-pyrrolo[3,2-f][1,7]naphthyridin-9-yl)-N-(2,2,2-trifluoroethyl)piperidine-3-carboxamide]		1 to 20 nM	1 to 20 nM
CS(=O)(=O)NC1CCCN(c2ccnc3cnc4[nH]ccc4c23)C1 (centres unmarked) [Ex. 73, N-[1-(3H-pyrrolo[3,2-f][1,7]naphthyridin-9-yl)-3-piperidyl] methanesulfonamide]		1 to 20 nM	> 20 nM
O=C(CC(F)(F)F)N1CCCC(c2ccnc3cnc4[nH]ccc4c23)C1 (centres unmarked) [Ex. 4, 3,3,3-trifluoro-1-[3-(3H-pyrrolo[3,2-f][1,7]naphthyridin-9-yl)-1-piperidyl]propan-1-one]		1 to 20 nM	1 to 20 nM
COCCNC(=O)C1CCN(c2ccnc3cnc4[nH]ccc4c23)CC1 [Ex. 77, N-(2-methoxyethyl)-1-(3H-pyrrolo[3,2-f][1,7]naphthyridin-9-yl)piperidine-4-carboxamide]		> 20 nM	> 20 nM
N#CCS(=O)(=O)N1CCCC(c2ccnc3cnc4[nH]ccc4c23)C1 (centres unmarked) [Ex. 7, 2-[[3-(3H-pyrrolo[3,2-f][1,7]naphthyridin-9-yl)-1-piperidyl]sulfonyl]acetonitrile]		1 to 20 nM	1 to 20 nM
CN(C(=O)C1CCCN(c2ccnc3cnc4[nH]ccc4c23)C1)C1CC1 (centres unmarked) [Ex. 79, N-cyclopropyl-N-methyl-1-(3H-pyrrolo[3,2-f][1,7]naphthyridin-9-yl)piperidine-3-carboxamide]		> 20 nM	1 to 20 nM
CC1CCC(C(=O)NC2CC2)CN1c1ccnc2cnc3[nH]ccc3c12 (single isomer, unassigned) [Ex. 88B, trans-N-cyclopropyl-6-methyl-1-(3H-pyrrolo[3,2-f][1,7]naphthyridin-9-yl)piperidine-3-carboxamide]		1 to 20 nM	> 20 nM
CC(C)CNC(=O)C1CCCN(c2ccnc3cnc4[nH]ccc4c23)C1 (centres unmarked) [Ex. 67, N-isobutyl-1-(3H-pyrrolo[3,2-f][1,7]naphthyridin-9-yl)piperidine-3-carboxamide]		> 20 nM	> 20 nM
O=C(CC(F)(F)F)N1CCN(c2ccnc3cnc4[nH]ccc4c23)CC1 [Ex. 103, 3,3,3-trifluoro-1-[4-(3H-pyrrolo[3,2-f][1,7]naphthyridin-9-yl)piperazin-1-yl]propan-1-one]		> 20 nM	> 20 nM
CC(C)(C)OC(=O)N1CCN(c2ccnc3cnc4[nH]ccc4c23)CC1 [Comp. 127, tert-butyl 4-(3H-pyrrolo[3,2-f][1,7]naphthyridin-9-yl)piperazine-1-carboxylate]		> 20 nM	> 20 nM
